Data published in publication PMC6100415, “Hepatic Metabolism of Sakuranetin and Its Modulating Effects on Cytochrome P450s and UDP-Glucuronosyltransferases” (Molecules : A Journal of Synthetic Chemistry and Natural …, 2018).
Blank lines part the entries; values can stand above or below the compound they belong to.

Legend:
[1] = NADPH-dependent phase I metabolic stability in human liver microsomes; format: in vitro ADME
Experimental: (§1) Metabolic stability was measured by monitoring the amount of parent compound that remained in an incubation mixture at designated incubation time points. For the phase I metabolism study, SKN (100 μM) was incubated with liver microsomes (1 mg/mL, rat, mouse, and dog; and 0.5 mg/mL, human), and an NADPH-generation cocktail consisting of nicotinamide adenine dinucleotide phosphate (NADP^+, 1 mM), glucose-6-phosphate (5 mM), glucose-6-phosphate dehydrogenase (1 unit/mL), and MgCl2 (10 mM) in potassium phosphate buffer (0.1 M, pH 7.4) in a total volume of 1 mL. To study phase II glucuronide conjugative metabolism, uridine 5′-diphosphoglucuronic acid (UDPGA) (2 mM) was added as a cofactor. The mixture was incubated in a shaking water bath, and the enzyme reaction was initiated by the addition of NADP^+, UDPGA, or both. Aliquots (100 μL) were removed at 0, 5, 15, 30, 45, and 60 min, and the reaction was terminated by adding two volumes of ice-cold methanol. […] The half-life of SKN was obtained by plotting the remaining amount of SKN against time using Prism 3.0 software (GraphPad, La Jolla, CA, USA). Hepatic intrinsic clearance (CLint, hepatic) was calculated using the following formula [20]:CLint, hepatic = (0.693/t1/2) × (g liver weight/kg body weight) × (mL incubation/mg of microsomal protein) × (mg microsomal protein concentration/g of liver)
(§2) The DAD was set at 280 nm.

[2] = UDPGA-dependent metabolic stability in dog liver microsomes; format: in vitro ADME; details: for Amount Remaining at 30 min (%): dog liver microsomes; for half-life at 100 µM / CLint scaled at 100 µM: dog, liver microsomes, pH 7.4, dog liver microsomes; for CLint scaled at 100 µM: read-out: CLint, hepatic
Experimental: as §1, §2

[3] = biological target: CYP2C9 (Homo sapiens, UniProt P11712); assay: CYP inhibition in human liver microsomes, diclofenac 4′-hydroxylation (DCHY); details: CYP2C9, DCHY, SKN 10 μM, 15 min pre-incubation
Experimental: The formation of a metabolite from a CYP isozyme-specific phenotyping reaction (Table 4) was monitored. Each substrate (200 μM), along with SKN (10 μM), was incubated with human liver microsomes (0.5 mg/mL) and an NADPH-generating system in 0.1 M potassium phosphate buffer (pH 7.4) at 37 °C for 60 min in a total volume of 200 μL in a shaking water bath. The metabolic reaction was initiated by adding NADP^+ (1 mM) and stopped by adding 10 μL of trichloroacetic acid. In some experiments, the microsomes were pre-incubated with SKN for 15 min prior to the addition of the cofactor, in order to determine the time-dependent inhibitory effect. […] In contrast, co-incubation refers to experiments in which microsomes and cofactors were incubated in the presence of SKN. After centrifugation of incubation samples at 12,000× g for 15 min at 4 °C, the supernatant (20 μL) was injected into an HPLC-DAD system to analyze the metabolites formation (Supplementary Materials).
The DAD was set at 248 nm for phenacetin O-deethylation (PCOD), 298 nm for bupropion hydroxylation (BPHY), 276 nm for diclofenac 4′-hydroxylation (DCHY), 230 nm for tolbutamide 6-hydroxylation (TOLHY), 280 nm for dextromethorphan O-demethylation (DEXOD), and 250 nm for testosterone 6β-hydroxylation (TSTHY) and testosterone β-D-glucuronidation (TSTG).

[4] = NADPH-dependent phase I metabolic stability in mouse liver microsomes; format: in vitro ADME
Experimental: as §1, §2

[5] = tested on: hPXR-mediated CYP3A4 promoter; assay: PXR-mediated CYP3A4 promoter luciferase assay in HepG2 cells; format: cell-based, human; details: pcDNA3-PXR-transfected HepG cells, SKN 20 μM, 24 h
Experimental: (§3) HepG2 cells (American Tissue Culture Collection, Manassas, VA, USA) were maintained in Dulbecco’s modified Eagle’s essential medium (DMEM), containing 10% fetal bovine serum, 1% nonessential amino acids, 1% GlutaMAX®, and 1% antibiotics/antimycotics at 37 °C in a 5% CO2 atmosphere. The expression plasmid encoding the human constitutive androstane receptor (hCAR; pcDNA3-CAR) and the pGL3-CYP2B6 luciferase construct were kindly provided by Dr. Hongbing Wang (University of Maryland, College Park, MD, USA). The plasmid encoding the human pregnane X receptor (hPXR; pcDNA3-PXR) and the pGL3-CYP3A4 luciferase construct were obtained from Dr. Masahiko Negishi at the National Institutes of Health (Bethesda, MD, USA). Cells were seeded at a density of 1.5 × 10^5 cells/well into a 24-well plate. The next day, the cells were transfected with 0.25 μg of either pcDNA3-CAR or pcDNA3-PXR and 0.25 μg of a promoter luciferase plasmid (either pGL3-CYP2B6 or pGL3-CYP3A4) using Lipofectamine 2000 (Invitrogen, Carlsbad, CA, USA) according to the manufacturer’s instructions. […] The cells were harvested and luciferase activity was measured as described previously.

[6] = NADPH-dependent phase I metabolic stability in dog liver microsomes; format: in vitro ADME
Experimental: as §1, §2

[7] = tested on: hCAR-mediated CYP2B6 promoter; assay: CAR-mediated CYP2B6 promoter luciferase assay in HepG2 cells; format: cell-based, human; details: pcDNA3-CAR-transfected HepG2 cells, 24 h; CITCO 500 nM
Experimental: as §3

[8] = tested on: various cancer cell lines; details: cited from earlier work

CYP2C9, sequence (P11712 whole entry): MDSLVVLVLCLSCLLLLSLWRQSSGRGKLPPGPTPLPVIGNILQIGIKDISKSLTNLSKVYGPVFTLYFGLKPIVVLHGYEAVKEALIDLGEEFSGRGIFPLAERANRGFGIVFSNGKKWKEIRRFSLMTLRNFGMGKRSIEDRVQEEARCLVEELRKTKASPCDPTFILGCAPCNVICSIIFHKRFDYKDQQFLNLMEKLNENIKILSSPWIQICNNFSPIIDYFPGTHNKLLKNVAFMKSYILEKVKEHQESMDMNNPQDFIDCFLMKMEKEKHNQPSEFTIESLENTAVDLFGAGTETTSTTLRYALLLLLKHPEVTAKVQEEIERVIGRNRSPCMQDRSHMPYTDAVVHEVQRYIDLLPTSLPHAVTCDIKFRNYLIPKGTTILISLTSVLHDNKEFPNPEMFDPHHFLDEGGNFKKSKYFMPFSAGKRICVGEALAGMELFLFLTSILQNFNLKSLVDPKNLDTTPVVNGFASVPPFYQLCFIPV

- Amount Remaining at 30 min (%) ([1]; human liver microsomes 0.5 mg/mL, SKN 100 μM): 65.5%
- amount of SKN remaining after 60 min of incubation ([1]; human liver microsomes, 60 min): greater than 50%
- half-life at 100 µM ([1]; pH 7.4, human liver microsomes): > 60 min
- CLint scaled at 100 µM ([1]; pH 7.4, human liver microsomes, read-out: CLint, hepatic): < 20.8 mL/min/kg
- Amount Remaining at 30 min (%) ([2]; NADPH +): 0.0%
- Amount Remaining at 30 min (%) ([2]; NADPH −): 42.4%
- half-life at 100 µM ([2]; NADPH +): 5.8 min
- CLint scaled at 100 µM ([2]; NADPH +): 300 mL/min/kg
- half-life at 100 µM ([2]; NADPH −): 24.2 min
- CLint scaled at 100 µM ([2]; NADPH −): 71.4 mL/min/kg
- % Inhibition in Pre-Incubation [3]: 8.7 ± 1.4%
- Amount Remaining at 30 min (%) ([4]; mouse liver microsomes 1 mg/mL, SKN 100 μM): 4.90%
- amount of SKN remaining after 60 min of incubation ([4]; mouse liver microsomes, 60 min): 4.9%
- half-life at 100 µM ([4]; pH 7.4, mouse liver microsomes): 5.4 min
- CLint scaled at 100 µM ([4]; pH 7.4, mouse liver microsomes, read-out: CLint, hepatic): 565 mL/min/kg
- CYP3A4-luciferase activity increase [5]: 3.8 fold
- Amount Remaining at 30 min (%) ([6]; dog liver microsomes 1 mg/mL, SKN 100 μM): 18.5%
- amount of SKN remaining after 60 min of incubation ([6]; dog liver microsomes, 60 min): 18.5%
- half-life at 100 µM ([6]; pH 7.4, dog liver microsomes): 2.7 min
- CLint scaled at 100 µM ([6]; pH 7.4, dog liver microsomes, read-out: CLint, hepatic): 641 mL/min/kg
- CYP2B6 luciferase activity increase [7]: not affected
Compound: COc1cc(O)c2c(c1)OC(c1ccc(O)cc1)CC2=O (racemic) [SKN, (+/−) 7-O-methylnaringenin]

Compound: O=C1C[C@@H](c2ccc(O)c(O)c2)Oc2cc(O)cc(O)c21 [Eriodictyol, 3′-hydroxynaringenin]
- anti-proliferative activity compared to naringenin [8]: two-fold higher
